Values belong to the compound of their own block, whether it stands above or below them.
Tests used:
[1] = molecular target: T1, mineralocorticoid receptor (MR) (Homo sapiens, UniProt P08235); test: MR agonist assay, MR-luciferase reporter cells; assay type: cell-based; settings: 24 h incubation; 'in contrast' = unlike LEO 134310, which gave no significant activation
T1 sequence (P08235 1-984): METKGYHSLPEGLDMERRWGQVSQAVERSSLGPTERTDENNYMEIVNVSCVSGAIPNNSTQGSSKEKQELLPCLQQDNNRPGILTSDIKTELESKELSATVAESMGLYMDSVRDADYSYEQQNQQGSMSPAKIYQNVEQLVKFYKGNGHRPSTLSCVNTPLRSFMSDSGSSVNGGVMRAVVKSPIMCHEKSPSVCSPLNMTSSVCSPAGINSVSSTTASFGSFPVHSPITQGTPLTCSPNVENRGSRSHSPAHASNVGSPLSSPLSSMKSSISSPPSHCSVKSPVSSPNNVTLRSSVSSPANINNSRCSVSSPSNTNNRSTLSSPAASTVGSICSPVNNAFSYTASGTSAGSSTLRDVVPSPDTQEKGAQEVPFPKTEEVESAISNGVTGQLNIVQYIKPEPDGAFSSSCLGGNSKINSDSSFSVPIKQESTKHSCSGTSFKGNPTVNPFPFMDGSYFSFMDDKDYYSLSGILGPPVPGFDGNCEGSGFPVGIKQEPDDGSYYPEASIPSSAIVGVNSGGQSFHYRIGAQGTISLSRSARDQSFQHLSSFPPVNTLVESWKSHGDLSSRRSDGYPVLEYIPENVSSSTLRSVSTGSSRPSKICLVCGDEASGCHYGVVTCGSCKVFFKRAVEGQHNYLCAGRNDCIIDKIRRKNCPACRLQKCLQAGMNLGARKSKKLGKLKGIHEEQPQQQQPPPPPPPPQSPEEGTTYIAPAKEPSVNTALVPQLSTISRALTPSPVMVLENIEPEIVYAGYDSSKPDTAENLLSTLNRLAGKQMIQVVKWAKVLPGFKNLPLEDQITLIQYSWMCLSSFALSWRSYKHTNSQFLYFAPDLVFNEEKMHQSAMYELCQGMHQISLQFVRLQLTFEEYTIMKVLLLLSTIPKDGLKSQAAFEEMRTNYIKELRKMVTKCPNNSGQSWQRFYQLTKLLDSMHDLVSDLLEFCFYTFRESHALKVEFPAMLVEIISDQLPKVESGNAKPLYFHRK
Method: Assays were performed at Indigo Biosciences according to standard protocols. In brief, MR-luciferase reporter cells were incubated with medium containing charcoal-stripped fetal bovine serum and incubated with test and reference compounds for 24 h before measuring luminescence. Data were fitted by the means of four parameter logistic regression.

HPA axis = tested on: HPA axis; design: method as in PMID 3553247; settings: topical; cited from earlier work
skin atrophy = tested on: skin atrophy; design: method as in PMID 23639214; settings: healthy subjects; cited from earlier work
atopic dermatitis = tested on: atopic dermatitis; design: method as in PMID 25614148; settings: atopic dermatitis patients; cited from earlier work

- Activation of MR (luciferase activity) [1]: positive control
SMILES: C[C@]12CCC(=O)C=C1CC[C@@H]1[C@@H]2[C@@H](O)C[C@]2(C=O)[C@@H](C(=O)CO)CC[C@@H]12 [aldosterone]

SMILES: CCC(=O)OCC(=O)[C@@]1(OC(=O)CC)[C@@H](C)C[C@H]2[C@@H]3CCC4=CC(=O)C=C[C@]4(C)[C@@]3(F)[C@@H](O)C[C@@]21C [betamethasone dipropionate]
- Effect on morning plasma cortisol (HPA axis): reduce morning plasma cortisol significantly

SMILES: C[C@@H]1C[C@H]2[C@@H]3C[C@H](F)C4=CC(=O)C=C[C@]4(C)[C@@]3(F)[C@@H](O)C[C@]2(C)[C@@]1(OC(=O)C1C(C)(C)C1(C)C)C(=O)OCC#N [GW870086]
- Induction of skin atrophy (skin atrophy): not to induce skin atrophy
- Clinical efficacy (atopic dermatitis): did not achieve significant clinical efficacy

Reference: article PMC8795149, “Characterization of a novel non-steroidal glucocorticoid receptor agonist optimized for topical treatment” (Scientific Reports, 2022)
